Laboratory results reported in ChEMBL document CHEMBL1132316 (J Med Chem, 1999).

The compounds below were run on Rattus norvegicus (assay: Tested for the protection against glutamic acid-evoked convulsions in rats by intraperitoneal administration). Conditions: ip.
Format: functional

Compound	ED50
N=c1sc2cc(OC(F)(F)F)ccc2n1CCN1CCN(c2ccccc2)CC1	3.5 mg/kg
Cn1c(=N)sc2cc(OC(F)(F)F)ccc21	5 mg/kg
CCSCCn1/c(=N/C)sc2cc(OC(F)(F)F)ccc21	3.7 mg/kg
CN(CCc1ccccc1)CCn1c(=N)sc2cc(OC(F)(F)F)ccc21	5 mg/kg
N=c1sc2cc(OC(F)(F)F)ccc2n1CCO	8 mg/kg
N=c1sc2cc(OC(F)(F)F)ccc2n1CCc1ccccc1	> 10 mg/kg
Nc1nc2ccc([N+](=O)[O-])cc2s1	> 10 mg/kg
C[S+]([O-])CCCn1c(=N)sc2cc(OC(F)(F)F)ccc21 (configuration not stated)	2.3 mg/kg
N=c1sc2cc(OC(F)(F)F)ccc2n1Cc1ccccc1	> 10 mg/kg
N=c1sc2cc(OC(F)(F)F)ccc2n1CCCN1CCN(c2ccccc2)CC1	10 mg/kg
Nc1nc2cccc(OC(F)(F)F)c2s1	> 10 mg/kg
N#CCn1c(=N)sc2cc(OC(F)(F)F)ccc21	3.5 mg/kg
CCc1ccc2nc(N)sc2c1	7 mg/kg
Nc1nc2ccc(OC(F)(F)C(F)F)cc2s1	8.5 mg/kg
CCCSCCn1c(=N)sc2cc(OC(F)(F)F)ccc21	2.4 mg/kg
N=c1sc2cc(OC(F)(F)F)ccc2n1CC[S+]([O-])c1ccccc1 (configuration not stated)	4.2 mg/kg
Nc1nc2ccc(OCC(F)(F)C(F)(F)F)cc2s1	7.5 mg/kg
CCCCc1ccc2c(c1)sc(=N)n2CC[S+]([O-])CC (configuration not stated)	> 10 mg/kg
CCC(C)(C)c1ccc2nc(N)sc2c1	> 10 mg/kg
CN(CCn1c(=N)sc2cc(OC(F)(F)F)ccc21)Cc1ccccc1	7 mg/kg
Nc1ccc2nc(N)sc2c1	> 10 mg/kg
CS(=O)(=O)CCn1c(=N)sc2cc(OC(F)(F)F)ccc21	1.8 mg/kg
CN(C)S(=O)(=O)CCn1c(=N)sc2cc(OC(F)(F)F)ccc21	> 10 mg/kg

Compound	ED50
N=c1sc2cc(OC(F)(F)F)ccc2n1CCSc1ccccc1	4.5 mg/kg
C[S+]([O-])Cn1c(=N)sc2cc(OC(F)(F)F)ccc21 (configuration not stated)	2.3 mg/kg
N#Cc1ccc2nc(N)sc2c1	> 10 mg/kg
N=c1sc2cc(OC(F)(F)F)ccc2n1CCS	2 mg/kg
C[S+]([O-])CCn1c(=N)sc2cc(OC(F)(F)F)ccc21 (configuration not stated)	1.1 mg/kg
CC(C)(C)Oc1ccc2nc(N)sc2c1	> 10 mg/kg
CCSCCn1/c(=N/O)sc2cc(OC(F)(F)F)ccc21	> 10 mg/kg
CS(=O)(=O)c1ccc2nc(N)sc2c1	> 10 mg/kg
CS(=O)(=O)CCCn1c(=N)sc2cc(OC(F)(F)F)ccc21	5 mg/kg
N=c1sc2cc(OC(F)(F)F)ccc2n1CCS(N)(=O)=O	6 mg/kg
Nc1nc2c(OC(F)(F)F)cccc2s1	> 10 mg/kg
Nc1nc2ccc(C(F)(F)F)cc2s1	2.5 mg/kg
N=c1sc2cc(OC(F)(F)F)ccc2n1CC(=O)O	> 10 mg/kg
COC(=O)Cn1c(=N)sc2cc(OC(F)(F)F)ccc21	> 10 mg/kg
Nc1nc2cc(OC(F)(F)F)ccc2s1	> 10 mg/kg
CSCCn1c(=N)sc2cc(OC(F)(F)F)ccc21	1 mg/kg
N=c1sc2cc(OC(F)(F)F)ccc2n1CC(N)=O	7 mg/kg
CN(C)CCn1c(=N)sc2cc(OC(F)(F)F)ccc21	2.3 mg/kg
CCCc1ccc2nc(N)sc2c1	6 mg/kg
CSCCn1/c(=N/C(C)=O)sc2cc(OC(F)(F)F)ccc21	> 10 mg/kg
CCCCCc1ccc2nc(N)sc2c1	7.5 mg/kg
CCCCc1ccc2nc(N)sc2c1	4 mg/kg
CC[S+]([O-])CCn1c(=N)sc2cc(OC(F)(F)F)ccc21 (configuration not stated)	1.2 mg/kg

Compound	ED50
CSCCCn1c(=N)sc2cc(OC(F)(F)F)ccc21	4.2 mg/kg
CNCCn1c(=N)sc2cc(OC(F)(F)F)ccc21	> 10 mg/kg
CC(C)(C)Cc1ccc2nc(N)sc2c1	> 10 mg/kg
Nc1nc2ccc(C3CCCCC3)cc2s1	> 10 mg/kg
N=c1sc2cc(OC(F)(F)F)ccc2n1CCN1CCCCC1	2 mg/kg
N=c1sc2cc(OC(F)(F)F)ccc2n1CCN1CC=C(c2ccccc2)CC1	2.2 mg/kg
CCSCCn1c(=N)sc2cc(OC(F)(F)F)ccc21	2.2 mg/kg
CCCCn1c(=N)sc2cc(OC(F)(F)F)ccc21	10 mg/kg
Nc1nc2ccc(SC(F)(F)F)cc2s1	8 mg/kg
Nc1nc2ccc(OC(F)(F)C(F)(F)F)cc2s1	2.5 mg/kg
Nc1nc2ccc(I)cc2s1	> 10 mg/kg
CCS(=O)(=O)CCn1c(=N)sc2cc(OC(F)(F)C(F)(F)F)ccc21	2.6 mg/kg
CCCn1c(=N)sc2cc(OC(F)(F)F)ccc21	4.5 mg/kg
CCn1c(=N)sc2cc(OC(F)(F)F)ccc21	5 mg/kg
CC[S+]([O-])CCn1c(=N)sc2cc(C(F)(F)F)ccc21 (configuration not stated)	1.7 mg/kg
CCOC(=O)c1ccc2nc(N)sc2c1	> 10 mg/kg
Nc1nc2ccc(CC(F)(F)F)cc2s1	8 mg/kg
C=CCn1c(=N)sc2cc(OC(F)(F)F)ccc21	7 mg/kg
Nc1nc2ccc(C(F)(F)C(F)(F)F)cc2s1	2.5 mg/kg
C[Si](C)(C)c1ccc2nc(N)sc2c1	5 mg/kg
CC[S+]([O-])CCn1c(=N)sc2cc(C(C)(C)C)ccc21 (configuration not stated)	> 10 mg/kg
CCSCCn1/c(=N/OC)sc2cc(OC(F)(F)F)ccc21	> 10 mg/kg
N=c1sc2cc(OC(F)(F)F)ccc2n1CCN1CCC(c2ccccc2)CC1	3 mg/kg

Compound	ED50
CN(C)CCn1c(=N)sc2cc(C(C)(C)C)ccc21	> 10 mg/kg
CNS(=O)(=O)CCn1c(=N)sc2cc(OC(F)(F)F)ccc21	4 mg/kg
Nc1nc2ccc(-c3ccccc3)cc2s1	> 10 mg/kg
CSCCn1c(=O)sc2cc(OC(F)(F)F)ccc21	> 10 mg/kg
CC(C)c1ccc2nc(N)sc2c1	> 10 mg/kg
CSCn1c(=N)sc2cc(OC(F)(F)F)ccc21	3 mg/kg
Nc1nc2ccc(OCC(F)(F)F)cc2s1	6.5 mg/kg
CCCCCCc1ccc2nc(N)sc2c1	7 mg/kg
Nc1nc2ccc(OC(F)F)cc2s1	7.5 mg/kg
C#CCn1c(=N)sc2cc(OC(F)(F)F)ccc21	4 mg/kg
Nc1nc2ccc(C(=O)C(F)(F)F)cc2s1	> 10 mg/kg
CCCCCCCc1ccc2nc(N)sc2c1	> 10 mg/kg
CCN(CC)C(=O)Cn1c(=N)sc2cc(OC(F)(F)F)ccc21	9 mg/kg
N=c1sc2cc(OC(F)(F)F)ccc2n1CCS(=O)(=O)O	> 10 mg/kg
COc1ccc2nc(N)sc2c1	> 10 mg/kg
CN(C)CCn1c(=N)sc2ccccc21	> 10 mg/kg
CC(C)(C)c1ccc2nc(N)sc2c1	4 mg/kg
Nc1nc2ccc(Br)cc2s1	> 10 mg/kg
CC/N=c1\sc2cc(OC(F)(F)F)ccc2n1CCSC	8.5 mg/kg
CN(C)CCCn1c(=N)sc2cc(OC(F)(F)F)ccc21	9 mg/kg
CCS(=O)(=O)CCn1c(=N)sc2cc(C(F)(F)C(F)(F)F)ccc21	2.1 mg/kg
C[C@]12N[C@H](Cc3ccccc31)c1ccccc12 (racemic) [DIZOCILPINE]	2.2 mg/kg
Nc1nc2ccc(OC(F)(F)F)cc2s1 [RILUZOLE]	3.2 mg/kg

These compounds were tested on Mus musculus (assay: Protective effect against mortality induced by hypobaric hypoxia in mice by intraperitoneal (i.p.) administration.). Conditions: ip.
Format: functional

Compound	ED50
N=c1sc2cc(OC(F)(F)F)ccc2n1CCN1CCN(c2ccccc2)CC1	5.5 mg/kg
N=c1sc2cc(OC(F)(F)F)ccc2n1CCCN1CCN(c2ccccc2)CC1	> 10 mg/kg
C[S+]([O-])CCn1c(=N)sc2cc(OC(F)(F)F)ccc21 (configuration not stated)	5.5 mg/kg
CSCCn1c(=N)sc2cc(OC(F)(F)F)ccc21	14 mg/kg
CN(C)CCn1c(=N)sc2cc(OC(F)(F)F)ccc21	4 mg/kg
N=c1sc2cc(OC(F)(F)F)ccc2n1CCN1CCCCC1	< 5 mg/kg
Nc1nc2ccc(OC(F)(F)F)cc2s1 [RILUZOLE]	4 mg/kg

These compounds were tested on Mus musculus (assay: Protective effect against mortality induced by hypobaric hypoxia in mice by intraperitoneal (i.p.) administration; Range 2.5-10). Conditions: ip.
Format: functional

Compound	ED50
CS(=O)(=O)CCn1c(=N)sc2cc(OC(F)(F)F)ccc21	2.5 mg/kg
N=c1sc2cc(OC(F)(F)F)ccc2n1CCN1CC=C(c2ccccc2)CC1	2.5 mg/kg
N=c1sc2cc(OC(F)(F)F)ccc2n1CCN1CCC(c2ccccc2)CC1	2.5 mg/kg
